The conditions of series [1]: range = 0.5- to 2.0-fold of target value; cited from earlier work.
Series [2] in a line: Steady-state plasma pharmacokinetics of LPV/RTV plus EFV, protocol P1058.
For series [3] the following is noted: children dosed according to body weight-adjusted dose recommendations; cited from earlier work.
For series [4] the following is noted: human, in vivo.
For series [5] the following is noted: 15 South African children, median dose 352 mg/m^2 equivalent to 14 mg/kg; cited from earlier work.
Series [6] in a line: clinical. To be noted: human, in vivo.
Setting [7] is: median (range), steady state, LPV/RTV 300 mg/m^2 b.i.d. + EFV 350 mg/m^2 q.d., 15 patients.

Structures are written as SMILES.

The text below walks through data of PMC2755569 (The Pediatric Infectious Disease Journal, 2009).

The AUC is concentration integrated over time. For the molecule `O=C1Nc2ccc(Cl)cc2[C@@](C#CC2CC2)(C(F)(F)F)O1` [EFV, efavirenz], in series [1], the “Target GM (range) AUC24” value is 64 (32–124) mg × h/L and the “Target GM (range) C24 hours” value is given as 1.8 (0.9 –3.6) mg/L. Also, the AUC in series [2] (human, plasma, oral, 350 mg/m2, AUC24, GM (90% CI), geometric mean (90% CI), EFV 350 mg/m^2 q.d. with LPV/RTV) was found to be 44100 ng·h/mL. Besides, the concentration at 24 h in series [2] (human, plasma, oral, EstC24 hours, GM (90% CI), geometric mean (90% CI), EFV 350 mg/m^2 q.d. with LPV/RTV) was determined as 800 ng/mL. Besides, the “CL (CL/F)” value in series [2] (setting [7]) is given as 8.5 (2.3–22.9) L/h. Further, in series [3], the “Patients with plasma concentrations below the targeted range” value is listed as 64%. In series [4], the “AUC lower compared with pediatric and adult patients” value stood at 30%. The “Cmin lower compared with pediatric and adult patients” value in series [4] (24 h) was 60%. Also, the “Patients with estimated Cmin <1 mg/L” value in series [5] is listed as 40%.

`Cc1cccc(C)c1OCC(=O)N[C@@H](Cc1ccccc1)[C@@H](O)C[C@H](Cc1ccccc1)NC(=O)[C@H](C(C)C)N1CCCNC1=O` [LPV, lopinavir]: the “Target GM (range) AUC12” value in series [1] is 80 (40 –160) mg × h/L. In addition, the AUC in series [6] (300 mg/m2, AUC (AUC12), GM (90% CI)) was determined as 91300 ng·h/mL; in series [6] (300 mg/m2, AUCτ (AUC12)) it was 100000 ng·h/mL.

As to `CC(C)c1nc(CN(C)C(=O)N[C@H](C(=O)N[C@@H](Cc2ccccc2)C[C@H](O)[C@H](Cc2ccccc2)NC(=O)OCc2cncs2)C(C)C)cs1` [RTV, ritonavir], the concentration at 12 h in series [2] (human, plasma, oral, Cmin (C12 h), median (range), LPV/RTV 300 mg/m^2 b.i.d. with EFV, 15 patients) came out at 300 ng/mL. In addition, the “CL (CL/F)” value in series [2] (setting [7]) was 11.8 (2.0–264.8) L/h. For the same molecule, the Tmax in series [2] (median (range), steady state, LPV/RTV 300 mg/m^2 b.i.d. + EFV 350 mg/m^2 q.d., 15 patients, plasma) was 3.0 (1.0–8.1) hr.
